The values below come from the supplement of paper PMC11281043.

Assay [1] has as its system Danio rerio embryo/larva. Put plainly: max % larvae unhatched across tested concentrations; max tested concentration (log10 uM): 2; higher = more toxic. The following applies: exposure: 6-8 hpf to 5 dpf, scored at 6 dpf.
Assay [2] has as its system Danio rerio embryo/larva. Description: BMC mortality; max tested concentration (log10 uM): 2; higher = less potent. As to conditions: exposure: 6-8 hpf to 5 dpf, scored at 6 dpf. The procedure:
(§1)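 Zebrafish embryos (with chorion) were exposed from 6-8 hpf to each PFAS (8-point half-log series, top concentration up to 100 uM, 0.4% DMSO, sealed plates, 26 C; n = 6 embryos per concentration), rinsed at 5 dpf and scored at 6 dpf by two blinded observers for mortality, hatching and malformations. Endpoint scores are the % of living larvae affected (dead larvae excluded; […]). Curves were fitted with tcpl (cutoff 16%), and the BMC is the concentration at a benchmark response of 21.6%.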

Assay [3] deals with Danio rerio embryo/larva. Description: max % larvae with any abnormality across tested concentrations; max tested concentration (log10 uM): 2; higher = more toxic; extreme values may be limits of the assay. The following applies: exposure: 6-8 hpf to 5 dpf, scored at 6 dpf.
Assay [4] has as its system Danio rerio embryo/larva. Put plainly: max % larvae dead across tested concentrations; max tested concentration (log10 uM): 2; higher = more toxic; extreme values may be limits of the assay. The following applies: exposure: 6-8 hpf to 5 dpf, scored at 6 dpf.
For assay [5], the system named is Danio rerio embryo/larva. Description: BMC any abnormality; max tested concentration (log10 uM): 2; higher = less potent. The following applies: exposure: 6-8 hpf to 5 dpf, scored at 6 dpf. The procedure: as §1
Assay [6] relates to Danio rerio embryo/larva. Description: BMC swim bladder non-inflation; higher = less potent. As to conditions: exposure: 6-8 hpf to 5 dpf, scored at 6 dpf. The procedure:
as §1

Assay [7] deals with Danio rerio embryo/larva. Description: BMC edema; higher = less potent. As to conditions: exposure: 6-8 hpf to 5 dpf, scored at 6 dpf. The procedure: as §1
In assay [8] the test system is Danio rerio embryo/larva. Put plainly: BMC craniofacial defects; higher = less potent. The following applies: max tested concentration (log10 uM): 2; exposure: 6-8 hpf to 5 dpf, scored at 6 dpf. The procedure: as §1
Assay [9] relates to Danio rerio embryo/larva. Put plainly: max % larvae generally abnormal across tested concentrations; higher = more toxic; extreme values may be limits of the assay. As to conditions: exposure: 6-8 hpf to 5 dpf, scored at 6 dpf.
The test system of assay [10] is Danio rerio embryo/larva. Description: max % larvae with uninflated swim bladder across tested concentrations; higher = more toxic; extreme values may be limits of the assay. The following applies: exposure: 6-8 hpf to 5 dpf, scored at 6 dpf.
For assay [11], the system named is Danio rerio embryo/larva. Put plainly: max % larvae with blood pooling across tested concentrations; higher = more toxic; extreme values may be limits of the assay. The following applies: exposure: 6-8 hpf to 5 dpf, scored at 6 dpf.
The test system of assay [12] is Danio rerio embryo/larva. Description: max % larvae with craniofacial defects across tested concentrations; higher = more toxic; extreme values may be limits of the assay. The following applies: exposure: 6-8 hpf to 5 dpf, scored at 6 dpf.
Assay [13] concerns Danio rerio embryo/larva. Description: BMC general abnormality; higher = less potent. The following applies: exposure: 6-8 hpf to 5 dpf, scored at 6 dpf. The procedure:
as §1

For assay [14], the system named is Danio rerio embryo/larva. Put plainly: max % larvae with abnormal position across tested concentrations; higher = more toxic; extreme values may be limits of the assay. As to conditions: exposure: 6-8 hpf to 5 dpf, scored at 6 dpf.
Assay [15] deals with Danio rerio embryo/larva. Put plainly: max % larvae with pigmentation defects across tested concentrations; higher = more toxic. As to conditions: exposure: 6-8 hpf to 5 dpf, scored at 6 dpf.
Assay [16] has as its system Danio rerio embryo/larva. Put plainly: max % larvae with spinal defects across tested concentrations; higher = more toxic; extreme values may be limits of the assay. The following applies: exposure: 6-8 hpf to 5 dpf, scored at 6 dpf.
For assay [17], the system named is Danio rerio embryo/larva. Put plainly: max % larvae with edema across tested concentrations; higher = more toxic; extreme values may be limits of the assay. As to conditions: exposure: 6-8 hpf to 5 dpf, scored at 6 dpf.
The test system of assay [18] is Danio rerio embryo/larva. Put plainly: max % larvae with tail defects across tested concentrations; higher = more toxic; extreme values may be limits of the assay. As to conditions: exposure: 6-8 hpf to 5 dpf, scored at 6 dpf.
Setting [19] is: max tested concentration (log10 uM): 1.
[20] abbreviates: max tested concentration (log10 uM): 2.

Consider `C[N+](C)(C)CCCNS(=O)(=O)C(F)(F)C(F)(F)C(F)(F)C(F)(F)C(F)(F)C(F)(F)C(F)(F)C(F)(F)F`, for which, in [1], the “max % larvae unhatched across tested concentrations” value worked out at 0%. In [2], this molecule registered a BMC mortality of 19.8 µM. The molecule also had a max % larvae in [3] of 100%. The “max % larvae dead across tested concentrations” value in assay [4] stood at 100%. The same molecule gave a BMC any abnormality in assay [5] of 22.3 µM.
As for `C=CC(=O)OCC(F)(F)C(F)(F)C(F)(F)COC(=O)C=C` [1H,1H,5H,5H-Perfluoro-1,5-pentanediol diacrylate], the “max % larvae unhatched across tested concentrations” value in [1] amounted to 0%. This molecule had a BMC mortality in assay [2] of 8.77 µM. Also, the max % larvae in assay [3] came to 100%. Moreover, the “max % larvae dead across tested concentrations” value in assay [4] was 100%. In assay [5], this molecule had a BMC any abnormality of 7.62 µM.
`C=CC(=O)OCC(F)(F)C(F)(F)C(F)(F)C(F)(F)COC(=O)C=C` [1H,1H,6H,6H-Perfluorohexane-1,6-diol diacrylate]: in [1], the “max % larvae unhatched across tested concentrations” value is 0%. In assay [2], this molecule registered a BMC mortality of 8.28 µM. Moreover, the max % larvae in assay [3] is 100%. For the same molecule, in [6] (setting [19]), the “BMC swim bladder non-inflation” value was 2.81 µM. Besides, the “max % larvae dead across tested concentrations” value in assay [4] was 100%. The molecule also showed a BMC edema in assay [7] (setting [19]) of 8.94 µM. The molecule further had a BMC any abnormality in assay [5] of 1.52 µM.
Regarding `OCC(F)(F)C(F)(F)C(F)(F)C(F)(F)C(F)(F)C(F)(F)CO` [1H,1H,8H,8H-Perfluorooctane-1,8-diol], the “max % larvae unhatched across tested concentrations” value in assay [1] stood at 0%. Besides, the BMC craniofacial defects in [8] amounted to 91 µM. The max % larvae in [3] was determined as 91.7%. The “BMC swim bladder non-inflation” value in assay [6] (setting [20]) amounted to 10.4 µM. In [4], the “max % larvae dead across tested concentrations” value worked out at 0%. In assay [7] (setting [20]), this molecule displayed a BMC edema of 50.7 µM. Further, the BMC any abnormality in [5] amounted to 41.3 µM.
Regarding `OCC(F)(F)C(F)(F)C(F)(F)C(F)(F)C(F)(F)C(F)(F)C(F)(F)C(F)(F)CO` [1H,1H,10H,10H-Perfluorodecane-1,10-diol], in assay [1], the “max % larvae unhatched across tested concentrations” value is 0%. The BMC mortality in assay [2] was found to be 19.5 µM. The same molecule registered a max % larvae in [3] of 100%. Further, the “BMC swim bladder non-inflation” value in assay [6] (setting [19]) was found to be 3.47 µM. The “max % larvae dead across tested concentrations” value in [4] is 100%. Also, the BMC any abnormality in [5] turned out to be 4.08 µM.
For `OCCC(F)(F)C(F)(F)C(F)(F)C(F)(F)C(F)(F)C(F)(F)F` [2-(Perfluorohexyl)ethanol], in assay [1], the “max % larvae unhatched across tested concentrations” value was determined as 0%. In addition, the BMC craniofacial defects in assay [8] is 27.9 µM. In assay [3], this molecule gave a max % larvae of 89.6%. Besides, in assay [6] (setting [20]), the “BMC swim bladder non-inflation” value turned out to be 26.2 µM. Also, in assay [4], the “max % larvae dead across tested concentrations” value was determined as 8.33%. Further, the BMC edema in assay [7] (setting [20]) worked out at 3.37 µM. The molecule further gave a BMC any abnormality in assay [5] of 10.4 µM.
As for `OCCC(F)(F)C(F)(F)C(F)(F)C(F)(F)C(F)(F)C(F)(F)C(F)(F)C(F)(F)F` [2-(Perfluorooctyl)ethanol], the “max % larvae unhatched across tested concentrations” value in assay [1] stood at 0%. The BMC mortality in assay [2] was 89 µM. The max % larvae in assay [3] worked out at 58.3%. The “max % larvae dead across tested concentrations” value in [4] stood at 25%.
On to `O=C(O)CCC(F)(F)C(F)(F)C(F)(F)C(F)(F)C(F)(F)C(F)(F)F` [3-(Perfluorohexyl)propanoic acid], for which the “max % larvae unhatched across tested concentrations” value in assay [1] was 0%. In [2], this molecule had a BMC mortality of 19.5 µM. Further, the max % larvae in [3] was 100%. In assay [4], the “max % larvae dead across tested concentrations” value was 100%. The BMC edema in assay [7] (setting [19]) turned out to be 9.01 µM. Also, the BMC any abnormality in assay [5] is 8.2 µM.
Take `O=C(O)C(F)(F)C(F)(F)C(F)(F)C(F)(F)C(F)(F)C(F)(F)C(F)(F)C(F)(F)C(F)(F)C(F)F` [11-H-Perfluoroundecanoic acid]: in [1], the “max % larvae unhatched across tested concentrations” value stood at 0%. In [2], this molecule displayed a BMC mortality of 11.2 µM. The max % larvae in assay [3] is 100%. The “max % larvae dead across tested concentrations” value in assay [4] was found to be 100%. For the same molecule, in assay [7] (max tested concentration (log10 uM): 1.47712), the BMC edema came to 12.6 µM. Moreover, the BMC any abnormality in [5] turned out to be 12.9 µM.
Regarding `CC(C)(C)C(=O)CC(=O)C(F)(F)C(F)(F)C(F)(F)F` [(Heptafluorobutanoyl)pivaloylmethane] (max tested concentration (log10 uM): 2), in assay [9], the “max % larvae generally abnormal across tested concentrations” value came out at 66.7%. The max % larvae in assay [10] came to 100%; in assay [11], 20%; in assay [12], 83.3%; in assay [14], 25%; in assay [15], 0%; in assay [16] it was 0%. Besides, the max % larvae in [17] was 66.7%; in assay [18] it was 0%. In assay [13], this molecule registered a BMC general abnormality of 25.6 µM.
Regarding `O=C(CC(=O)C(F)(F)C(F)(F)C(F)(F)F)c1cccs1` [(Perfluorobutyryl)-2-thenoylmethane], the “max % larvae unhatched across tested concentrations” value in [1] was determined as 0%. Also, the BMC mortality in assay [2] came to 6.44 µM. This molecule also returned a max % larvae in assay [3] of 100%. Also, in assay [4], the “max % larvae dead across tested concentrations” value was found to be 100%. In [5], this molecule had a BMC any abnormality of 3.11 µM.
Take `CCNS(=O)(=O)C(F)(F)C(F)(F)C(F)(F)C(F)(F)C(F)(F)C(F)(F)C(F)(F)C(F)(F)F` [N-Ethylperfluorooctane sulfonamide]: the “max % larvae unhatched across tested concentrations” value in assay [1] was 0%. For the same molecule, the BMC mortality in assay [2] amounted to 19.5 µM. The same molecule registered a max % larvae in [3] of 100%. In addition, in [6] (setting [19]), the “BMC swim bladder non-inflation” value amounted to 3.13 µM. Also, the “max % larvae dead across tested concentrations” value in assay [4] was found to be 100%. The molecule further showed a BMC edema in assay [7] (setting [19]) of 2.88 µM. Moreover, in assay [5], the BMC any abnormality came out at 2.37 µM.
Take `CCNS(=O)(=O)C(F)(F)C(F)(F)C(F)(F)C(F)(F)C(F)(F)C(F)(F)C(F)(F)C(F)(F)F` [N-Ethylperfluorooctane sulfonamide] (max tested concentration (log10 uM): 1): in [9], the “max % larvae generally abnormal across tested concentrations” value came out at 58.3%. Moreover, the max % larvae in assay [10] is 83.3%; in [11] it was 16.7%; in [12], 8.33%; in assay [14], 8.33%; in assay [15] it was 0%; in [16] it was 0%. Also, the max % larvae in assay [17] turned out to be 41.7%; in assay [18], 0%. The molecule further yielded a BMC general abnormality in assay [13] of 2.91 µM.
`CNS(=O)(=O)C(F)(F)C(F)(F)C(F)(F)C(F)(F)C(F)(F)C(F)(F)C(F)(F)C(F)(F)F` [N-Methylperfluorooctanesulfonamide] (max tested concentration (log10 uM): 2): the “max % larvae generally abnormal across tested concentrations” value in [9] was 50%. In addition, the max % larvae in [10] was determined as 90.9%; in assay [11], 0%; in [12], 18.2%; in assay [14] it was 8.33%; in assay [15], 0%; in assay [16] it was 0%. The results for the max % larvae in [17] and in [18] were 36.4% and 0%, respectively. This molecule also returned a BMC general abnormality in assay [13] of 0.968 µM.
With `FC(F)(I)C(F)(F)C(F)(F)C(F)(F)I` [Perfluoro-1,4-diiodobutane], the “max % larvae unhatched across tested concentrations” value in assay [1] is 0%. The BMC craniofacial defects in assay [8] is 74.2 µM. The molecule further displayed a max % larvae in [3] of 70.8%. The “BMC swim bladder non-inflation” value in assay [6] (setting [20]) was 25.6 µM. Also, the “max % larvae dead across tested concentrations” value in assay [4] came out at 16.7%. The molecule also had a BMC edema in assay [7] (setting [20]) of 20.6 µM. This molecule also returned a BMC any abnormality in assay [5] of 14.8 µM.
Consider `FC(F)(I)C(F)(F)C(F)(F)C(F)(F)I` [Perfluoro-1,4-diiodobutane] (max tested concentration (log10 uM): 2), for which the “max % larvae generally abnormal across tested concentrations” value in assay [9] came to 58.3%. Besides, the max % larvae in assay [10] came to 66.7%; in assay [11], 20%; in [12] it was 50%; in assay [14] it was 16.7%; in [15] it was 0%; in assay [16], 16.7%. In addition, the max % larvae was found to be 58.3% in assay [17] and 20.8% in assay [18]. Moreover, the BMC general abnormality in [13] amounted to 20.6 µM.
